Data: patent publication US11053204B2, “Pyrimidinyloxy benzene derivatives as herbicides” (FMC Corporation, priority 2015, dated 2021)

Columns and labels:
Format in all cases: in vivo
[1] = test system: blackgrass (Alopecurus myosuroides); assay: Test A postemergence, visual injury rating; conditions: 0 is no effect, 100 is complete control
Procedure, shortened: (§1)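 Visual injury scored 0–100 (100 = complete control) against untreated controls about 10 days after treatment in a greenhouse. Test chemicals, formulated with surfactant in non-phytotoxic solvent, were sprayed on soil preemergence or on 2-10 cm, one- to two-leaf plants postemergence.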

[2] = test system: Italian ryegrass (Lolium multiflorum); assay: Test A postemergence, visual injury rating; conditions: 0 is no effect, 100 is complete control
Procedure, shortened: as §1

kochia (Kochia scoparia) = assay: Test A postemergence, visual injury rating; conditions: 0 is no effect, 100 is complete control
Procedure, shortened: as §1

[3] = test system: wheat (Triticum aestivum); assay: Test A postemergence, visual injury rating; conditions: 0 is no effect, 100 is complete control
Procedure, shortened: as §1

[4] = test system: giant foxtail (Setaria faberii); assay: Test A postemergence, visual injury rating; conditions: 0 is no effect, 100 is complete control
Procedure, shortened: as §1

[5] = test system: barnyardgrass (Echinochloa crus-galli); assay: Test A postemergence, visual injury rating; conditions: 0 is no effect, 100 is complete control
Procedure, shortened: as §1

[6] = test system: pigweed (Amaranthus retroflexus); assay: Test A postemergence, visual injury rating; conditions: 0 is no effect, 100 is complete control
Procedure, shortened: as §1

[7] = test system: galium (catchweed bedstraw, Galium aparine); assay: Test A postemergence, visual injury rating; conditions: 0 is no effect, 100 is complete control
Procedure, shortened: as §1

corn (Zea mays) = assay: Test A postemergence, visual injury rating; conditions: 0 is no effect, 100 is complete control
Procedure, shortened: as §1

[8] = test system: ragweed (common ragweed, Ambrosia elatior); assay: Test A postemergence, visual injury rating; conditions: 0 is no effect, 100 is complete control
Procedure, shortened: as §1

[9] = test system: crabgrass, large (large crabgrass, Digitaria sanguinalis); assay: Test C postemergence, plant response rating
Excerpt: (§2) Seeds of plant species selected from blackgrass (Alopecurus myosuroides), ryegrass, Italian (Italian ryegrass, Lolium multiflorum), wheat (winter wheat, Triticum aestivum), galium (catchweed bedstraw, Galium aparine), corn (Zea mays), crabgrass, large (large crabgrass, Digitaria sanguinalis), foxtail, giant (giant foxtail, Setaria faberii), johnsongrass (Sorghum halepense), lambsquarters (Chenopodium album), morningglory (Ipomoea coccinea), nutsedge, yellow (yellow nutsedge, Cyperus esculentus), pigweed (Amaranthus retroflexus), ragweed (common ragweed, Ambrosia elatior), soybean (Glycine max), barnyardgrass (Echinochloa crus-galli), oilseed rape (Brassica napus), pigweed, palmer (palmer pigweed, Amaranthus palmeri), waterhemp (common waterhemp, Amaranthus rudis), velvetleaf (Abutilon theophrasti), kochia (Kochia scoparia), surinam grass (Brachiaria decumbens), nightshade (eastern black nightshade, Solanum ptycanthum), wild poinsettia (Euphorbia heterophylla), windgrass (Apera spica-venti), and oat, wild (wild oat Avena fatua), were planted into a blend of loam soil and sand or a silt loam soil and treated preemergence with test chemicals formulated in a non-phytotoxic solvent mixture which included a surfactant.
(§3) At the same time, plants selected from these crop and weed species and also chickweed (common chickweed, Stellaria media), buckwheat, wild (wild buckwheat, Polygonum convolvulus), wild mustard (Sinapis arvensis), field poppy (Papaver rhoeas), field violet (Viola arvensis), geranium, cutleaf (cutleaf geranium, Geranium dissectum), Canada thistle (Cirsium arvense), and speedwell (bird's-eye speedwell, Veronica persica), were planted in pots containing Sunshine Redi-Earth® planting medium comprising spaghnum peat moss, vermiculite, starter nutrients and dolomitic limestone and treated with postemergence applications of test chemicals formulated in the same manner. Plants ranged in height from 2 to 18 cm (1- to 4-leaf stage) for postemergence treatments. Treated plants and controls were maintained in a greenhouse for 13 to 15 d, after which time all species were compared to controls and visually evaluated. Plant response ratings, summarized in Table C, are based on a scale of 0 to 100 where 0 is no effect and 100 is complete control. A dash (-) response means no test result.

[10] = test system: barnyardgrass (Echinochloa crus-galli); assay: Test C postemergence, plant response rating
Excerpt: as §2, §3

[11] = test system: ryegrass, Italian (Italian ryegrass, Lolium multiflorum); assay: Test C postemergence, plant response rating
Excerpt: as §2, §3

[12] = 62 g ai/ha, scale 0 to 100 (0 no effect, 100 complete control)
[13] = 125 g ai/ha, scale 0 to 100 (0 no effect, 100 complete control)

## O=C(OCC(F)(F)F)c1c(Br)cccc1Oc1ncc(Cl)cn1 [Compound 35]
[1]; 125 g ai/ha
  Blackgrass plant response rating (0 to 100 scale): 40
[1]; 500 g ai/ha
  Blackgrass plant response rating (0 to 100 scale): 80
[2]; 125 g ai/ha
  Ryegrass, Italian plant response rating (0 to 100 scale): 0
[2]; 500 g ai/ha
  Ryegrass, Italian plant response rating (0 to 100 scale): 40
Kochia (Kochia scoparia); 125 g ai/ha
  Kochia plant response rating (0 to 100 scale): 90
Kochia (Kochia scoparia); 500 g ai/ha
  Kochia plant response rating (0 to 100 scale): 100
[3]; 125 g ai/ha
  Wheat plant response rating (0 to 100 scale): 0
[3]; 500 g ai/ha
  Wheat plant response rating (0 to 100 scale): 20
[4]; 125 g ai/ha
  Foxtail, Giant plant response rating (0 to 100 scale): 40
[4]; 500 g ai/ha
  Foxtail, Giant plant response rating (0 to 100 scale): 100
[5]; 125 g ai/ha
  Barnyardgrass plant response rating (0 to 100 scale): 10
[5]; 500 g ai/ha
  Barnyardgrass plant response rating (0 to 100 scale): 80
[6]; 125 g ai/ha
  Pigweed plant response rating (0 to 100 scale): 100
[6]; 500 g ai/ha
  Pigweed plant response rating (0 to 100 scale): 100
[7]; 125 g ai/ha
  Galium plant response rating (0 to 100 scale): 60
[7]; 500 g ai/ha
  Galium plant response rating (0 to 100 scale): 100
Corn (Zea mays); 125 g ai/ha
  Corn plant response rating (0 to 100 scale): 20
Corn (Zea mays); 500 g ai/ha
  Corn plant response rating (0 to 100 scale): 30
[8]; 125 g ai/ha
  Ragweed plant response rating (0 to 100 scale): 0
[8]; 500 g ai/ha
  Ragweed plant response rating (0 to 100 scale): 0
[9]; 16 g ai/ha, scale 0 to 100
  Plant response rating, Crabgrass, Large: 10
[9]; 31 g ai/ha, scale 0 to 100
  Plant response rating, Crabgrass, Large: 10
[9]; [12]
  Crabgrass, Large plant response rating: 15
[9]; [13]
  Crabgrass, Large plant response rating: 10
[10]; 16 g ai/ha, scale 0 to 100
  Plant response rating, Barnyardgrass: 5
[10]; 31 g ai/ha, scale 0 to 100
  Plant response rating, Barnyardgrass: 5
[10]; [12]
  Barnyardgrass plant response rating: 10
[10]; [13]
  Barnyardgrass plant response rating: 15
[11]; 16 g ai/ha, scale 0 to 100
  Plant response rating, Ryegrass, Italian: 0
[11]; 31 g ai/ha, scale 0 to 100
  Plant response rating, Ryegrass, Italian: 0
[11]; [12]
  Ryegrass, Italian plant response rating: 5
[11]; [13]
  Ryegrass, Italian plant response rating: 5

## C=CCOC(=O)c1c(Br)cccc1Oc1ncc(Cl)cn1 [Compound 22, 2-propen-1-yl 2-bromo-6-[(5-chloro-2-pyrimidinyl)oxy]benzoate]
[1]; Alopecurus myosuroides, post-emergence, 240 h, 125 g ai/ha, read-out: Blackgrass plant response rating (0 to 100 scale)
  pest or weed control at 125 g/ha: 60%
[1]; Alopecurus myosuroides, post-emergence, 240 h, 500 g ai/ha, read-out: Blackgrass plant response rating (0 to 100 scale)
  pest or weed control at 500 g/ha: 90%
[2]; Lolium multiflorum, post-emergence, 240 h, 125 g ai/ha, read-out: Ryegrass, Italian plant response rating (0 to 100 scale)
  pest or weed control at 125 g/ha: 0%
[2]; Lolium multiflorum, post-emergence, 240 h, 500 g ai/ha, read-out: Ryegrass, Italian plant response rating (0 to 100 scale)
  pest or weed control at 500 g/ha: 60%
Kochia (Kochia scoparia); Bassia scoparia, post-emergence, 240 h, 125 g ai/ha, read-out: Kochia plant response rating (0 to 100 scale)
  pest or weed control at 125 g/ha: 90%
Kochia (Kochia scoparia); Bassia scoparia, post-emergence, 240 h, 500 g ai/ha, read-out: Kochia plant response rating (0 to 100 scale)
  pest or weed control at 500 g/ha: 100%
[3]; Triticum aestivum, post-emergence, 240 h, 125 g ai/ha, read-out: Wheat plant response rating (0 to 100 scale)
  plant injury at 125 g/ha: 0%
[3]; Triticum aestivum, post-emergence, 240 h, 500 g ai/ha, read-out: Wheat plant response rating (0 to 100 scale)
  plant injury at 500 g/ha: 30%
[4]; Setaria faberi, post-emergence, 240 h, 125 g ai/ha, read-out: Foxtail, Giant plant response rating (0 to 100 scale)
  pest or weed control at 125 g/ha: 80%
[4]; Setaria faberi, post-emergence, 240 h, 500 g ai/ha, read-out: Foxtail, Giant plant response rating (0 to 100 scale)
  pest or weed control at 500 g/ha: 100%
[5]; Echinochloa crus-galli, post-emergence, 240 h, 125 g ai/ha, read-out: Barnyardgrass plant response rating (0 to 100 scale)
  pest or weed control at 125 g/ha: 60%
[5]; Echinochloa crus-galli, post-emergence, 240 h, 500 g ai/ha, read-out: Barnyardgrass plant response rating (0 to 100 scale)
  pest or weed control at 500 g/ha: 100%
[6]; Amaranthus retroflexus, post-emergence, 240 h, 125 g ai/ha, read-out: Pigweed plant response rating (0 to 100 scale)
  pest or weed control at 125 g/ha: 100%
[6]; Amaranthus retroflexus, post-emergence, 240 h, 500 g ai/ha, read-out: Pigweed plant response rating (0 to 100 scale)
  pest or weed control at 500 g/ha: 100%
[7]; Galium, post-emergence, 240 h, 125 g ai/ha, read-out: Galium plant response rating (0 to 100 scale)
  pest or weed control at 125 g/ha: 30%
[7]; Galium, post-emergence, 240 h, 500 g ai/ha, read-out: Galium plant response rating (0 to 100 scale)
  pest or weed control at 500 g/ha: 90%
Corn (Zea mays); Zea mays, post-emergence, 240 h, 125 g ai/ha, read-out: Corn plant response rating (0 to 100 scale)
  plant injury at 125 g/ha: 30%
Corn (Zea mays); Zea mays, post-emergence, 240 h, 500 g ai/ha, read-out: Corn plant response rating (0 to 100 scale)
  plant injury at 500 g/ha: 50%
[8]; Ambrosia artemisiifolia, post-emergence, 240 h, 125 g ai/ha, read-out: Ragweed plant response rating (0 to 100 scale)
  pest or weed control at 125 g/ha: 0%
[8]; Ambrosia artemisiifolia, post-emergence, 240 h, 500 g ai/ha, read-out: Ragweed plant response rating (0 to 100 scale)
  pest or weed control at 500 g/ha: 30%
[9]; Digitaria sanguinalis, post-emergence, 16 g ai/ha, scale 0 to 100
  pest or weed control at 16 g/ha: 10%
[9]; Digitaria sanguinalis, post-emergence, 31 g ai/ha, scale 0 to 100
  pest or weed control at 31 g/ha: 15%
[9]; Digitaria sanguinalis, post-emergence, 62 g ai/ha, scale 0 to 100 (0 no effect, 100 complete control)
  pest or weed control at 62 g/ha: 25%
[9]; Digitaria sanguinalis, post-emergence, 125 g ai/ha, scale 0 to 100 (0 no effect, 100 complete control)
  pest or weed control at 125 g/ha: 25%
[10]; Echinochloa crus-galli, post-emergence, 16 g ai/ha, scale 0 to 100
  pest or weed control at 16 g/ha: 5%
[10]; Echinochloa crus-galli, post-emergence, 31 g ai/ha, scale 0 to 100
  pest or weed control at 31 g/ha: 5%
[10]; Echinochloa crus-galli, post-emergence, 62 g ai/ha, scale 0 to 100 (0 no effect, 100 complete control)
  pest or weed control at 62 g/ha: 10%
[10]; Echinochloa crus-galli, post-emergence, 125 g ai/ha, scale 0 to 100 (0 no effect, 100 complete control)
  pest or weed control at 125 g/ha: 10%
[11]; Lolium multiflorum, post-emergence, 16 g ai/ha, scale 0 to 100
  pest or weed control at 16 g/ha: 0%
[11]; Lolium multiflorum, post-emergence, 31 g ai/ha, scale 0 to 100
  pest or weed control at 31 g/ha: 0%
[11]; Lolium multiflorum, post-emergence, 62 g ai/ha, scale 0 to 100 (0 no effect, 100 complete control)
  pest or weed control at 62 g/ha: 0%
[11]; Lolium multiflorum, post-emergence, 125 g ai/ha, scale 0 to 100 (0 no effect, 100 complete control)
  pest or weed control at 125 g/ha: 5%
